Where “and” joins values, the source holds several entries; their conditions need not be identical. Identical values can stand only once. Inconclusive results and toxic doses are left out. Cut-off read from the data, not from the text of the source: active = T/C of 150% or more; inactive = T/C below 125%.
Test system: L1210 leukemia ip in BDF1 mice, survival T/C
Test: NCI In Vivo Anticancer Drug Screen. Data for tumor model L1210 Leukemia (intraperitoneal) in B6D2F1 (BDF1) mice
Conditions: endpoint: mean survival time, higher = longer survival
Procedure, shortened: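 Transplantable tumor model; survival measured in treated vs vehicle control mice. Value = treated/control.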

[1] = dose: 100.0 mg/kg/injection, schedule: Q04DX003 (ip), vehicle: saline with Tween-80
[2] = dose: 200.0 mg/kg/injection, schedule: Q04DX003 (ip), vehicle: saline with Tween-80
[3] = dose: 400.0 mg/kg/injection, schedule: Q04DX003 (ip), vehicle: saline with Tween-80
[4] = dose: 400.0 mg/kg/injection, schedule: Q01DX009 (ip), vehicle: saline with Tween-80
[5] = dose: 50.0 mg/kg/injection, schedule: Q04DX002 (ip), vehicle: saline with Tween-80
[6] = dose: 100.0 mg/kg/injection, schedule: Q04DX002 (ip), vehicle: saline with Tween-80
[7] = dose: 100.0 mg/kg/injection, schedule: Q04DX003 (ip), vehicle: Klucel (hydroxypropylcellulose) (HPC)
[8] = dose: 200.0 mg/kg/injection, schedule: Q04DX003 (ip), vehicle: Klucel (hydroxypropylcellulose) (HPC)
[9] = dose: 400.0 mg/kg/injection, schedule: Q04DX003 (ip), vehicle: Klucel (hydroxypropylcellulose) (HPC)
[10] = dose: 100.0 mg/kg/injection, schedule: Q01DX009 (ip), vehicle: saline with Tween-80
[11] = dose: 200.0 mg/kg/injection, schedule: Q01DX009 (ip), vehicle: saline with Tween-80
[12] = dose: 50.0 mg/kg/injection, schedule: Q01DX009 (ip), vehicle: saline with Tween-80
[13] = dose: 100.0 mg/kg/injection, schedule: Q01DX001 (ip), vehicle: Klucel (hydroxypropylcellulose) (HPC)
[14] = dose: 100.0 mg/kg/injection, schedule: Q01DX001 (ip), vehicle: carboxymethylcellulose (CMC)

Measured: T/C

Cc1ccccc1NC(=O)c1ccccc1
inactive: [1] 100 % of control | [2] 98 % of control | [3] 98 % of control

CCCCCCC(=O)CCCCCCCCCCCCC(=O)OC
inactive: [4] 88 % of control

c1ccc2c(CCNC3=NCCO3)c[nH]c2c1
inactive: [5] 91 % of control | [6] 91 % of control | [7] 94 % of control | [8] 108 % of control | [9] 94 % of control

O=C(CC(=O)c1cccnc1)NC(=O)c1ccccc1
inactive: dose: 100.0 mg/kg/injection, schedule: Q01DX001 (ip), vehicle: other 96 % of control | dose: 200.0 mg/kg/injection, schedule: Q01DX001 (ip), vehicle: other 86 % of control | dose: 400.0 mg/kg/injection, schedule: Q01DX001 (ip), vehicle: other 89 % of control

CC[N+]1(CC)N=C([O-])N(C)C1=O
inactive: [10] 101 % of control | [11] 101 % of control | [4] 103 % of control

N#Cc1ccc(Nc2ccc(C#N)cc2)cc1
inactive: dose: 25.0 mg/kg/injection, schedule: Q01DX009 (ip), vehicle: saline with Tween-80 105 % of control | [12] 94 % of control | [10] 94 % of control | [1] 96 % of control | [2] 96 % of control | [3] 91 % of control

Clc1ccc2c(NCCNC3CCCCC3)ccnc2c1
inactive: dose: 9.38 mg/kg/injection, schedule: Q01DX001 (ip), vehicle: saline 105 % of control | dose: 18.75 mg/kg/injection, schedule: Q01DX001 (ip), vehicle: saline 100 % of control | dose: 37.5 mg/kg/injection, schedule: Q01DX001 (ip), vehicle: saline 108 % of control

Cc1ccc(S(=O)(=O)NC(=O)OC/C=C/c2ccccc2)cc1
inactive: dose: 100.0 mg/kg/injection, schedule: Q01DX009 (ip), vehicle: alcohol 96 % of control | dose: 200.0 mg/kg/injection, schedule: Q01DX009 (ip), vehicle: alcohol 94 % of control | dose: 400.0 mg/kg/injection, schedule: Q01DX009 (ip), vehicle: alcohol 110 % of control

CN1CCC2(CC1)C(=O)N(CC1COc3ccccc3O1)C(=O)C2c1ccccc1 (stereo not given)
inactive: [13] 99 % of control

CCOC(=O)CCC(NC(=O)c1cc(Cl)c(N(C)S(=O)(=O)c2ccc(C)cc2)cc1Cl)C(=O)OCC (stereo not given)
inactive: [13] 107 % of control | [10] 94 % of control | dose: 200.0 mg/kg/injection, schedule: Q01DX001 (ip), vehicle: Klucel (hydroxypropylcellulose) (HPC) 108 % of control | [11] 97 % of control | dose: 400.0 mg/kg/injection, schedule: Q01DX001 (ip), vehicle: Klucel (hydroxypropylcellulose) (HPC) 102 % of control | [4] 94 % of control

O=S(=O)(/C=C\c1ccccc1)/C=C/c1ccccc1
inactive: dose: 25.0 mg/kg/injection, schedule: Q04DX003 (ip), vehicle: saline with Tween-80 96 % of control | dose: 50.0 mg/kg/injection, schedule: Q04DX003 (ip), vehicle: saline with Tween-80 94 % of control | [1] 92 % of control

O=S=Nc1cc(Cl)c(Cl)cc1Cl
inactive: dose: 25.0 mg/kg/injection, schedule: Q04DX002 (ip), vehicle: saline 103 % of control | dose: 50.0 mg/kg/injection, schedule: Q04DX002 (ip), vehicle: saline 100 % of control | dose: 100.0 mg/kg/injection, schedule: Q04DX002 (ip), vehicle: saline 95 % of control and 109 % of control

COc1ccc2ncc(C)c(CO)c2c1
inactive: dose: 44.0 mg/kg/injection, schedule: Q01DX009 (ip), vehicle: Klucel (hydroxypropylcellulose) (HPC) 96 % of control | dose: 66.0 mg/kg/injection, schedule: Q01DX009 (ip), vehicle: Klucel (hydroxypropylcellulose) (HPC) 98 % of control | dose: 150.0 mg/kg/injection, schedule: Q01DX009 (ip), vehicle: Klucel (hydroxypropylcellulose) (HPC) 101 % of control | dose: 200.0 mg/kg/injection, schedule: Q01DX009 (ip), vehicle: Klucel (hydroxypropylcellulose) (HPC) 102 % of control | dose: 400.0 mg/kg/injection, schedule: Q01DX009 (ip), vehicle: Klucel (hydroxypropylcellulose) (HPC) 102 % of control

S=P(NCCCCCNP(=S)(N1CC1)N1CC1)(N1CC1)N1CC1
inactive: [14] 91 % of control

CC(C)(C)c1cc(C#N)cc(Br)c1O
inactive: dose: 25.0 mg/kg/injection, schedule: Q04DX002 (ip), vehicle: saline with Tween-80 102 % of control | [5] 97 % of control | [6] 97 % of control and 102 % of control

COc1cc(Oc2c(OC)cc(C(C)=O)cc2OC)cc(OC)c1OC
inactive: [1] 101 % of control | [2] 97 % of control | [3] 97 % of control

CC(=O)O[C@H]1CC[C@H]2[C@@H]3CC[C@H]4C[C@@H]5[C@H](C[C@]4(C)[C@H]3CC[C@]12C)C5(F)F
inactive: dose: 50.0 mg/kg/injection, schedule: Q01DX001 (sc), vehicle: steriod suspending solution 102 % of control | dose: 50.0 mg/kg/injection, schedule: Q01DX009 (sc), vehicle: steriod suspending solution 103 % of control | dose: 100.0 mg/kg/injection, schedule: Q01DX001 (sc), vehicle: steriod suspending solution 101 % of control | dose: 100.0 mg/kg/injection, schedule: Q01DX009 (sc), vehicle: steriod suspending solution 105 % of control | dose: 200.0 mg/kg/injection, schedule: Q01DX001 (sc), vehicle: steriod suspending solution 98 % of control | dose: 200.0 mg/kg/injection, schedule: Q01DX009 (sc), vehicle: steriod suspending solution 102 % of control | dose: 400.0 mg/kg/injection, schedule: Q01DX001 (sc), vehicle: steriod suspending solution 101 % of control | dose: 400.0 mg/kg/injection, schedule: Q01DX009 (sc), vehicle: steriod suspending solution 102 % of control

COc1ccc(/C=C(\S)C(=O)O)cc1
inactive: dose: 100.0 mg/kg/injection, schedule: Q01DX001 (ip), vehicle: saline 96 % of control | dose: 200.0 mg/kg/injection, schedule: Q01DX001 (ip), vehicle: saline 118 % of control | dose: 1040.0 mg/kg/injection, schedule: Q01DX001 (ip), vehicle: saline 111 % of control

COC(=O)CCCc1ccc(N(CCO)CCF)cc1
inactive: dose: 25.0 mg/kg/injection, schedule: Q01DX001 (ip), vehicle: carboxymethylcellulose (CMC) 103 % of control | dose: 50.0 mg/kg/injection, schedule: Q01DX001 (ip), vehicle: carboxymethylcellulose (CMC) 114 % of control | [14] 101 % of control | dose: 200.0 mg/kg/injection, schedule: Q01DX001 (ip), vehicle: carboxymethylcellulose (CMC) 106 % of control

O=C(O)c1c2ccc(=O)cc-2oc2cc(O)ccc12
inactive: [7] 92 % of control | [8] 92 % of control | [9] 89 % of control

CS(=O)(=O)OCCC(COS(C)(=O)=O)S(=O)(=O)CCCOc1ccccc1-c1ccccc1 (stereo not given)
inactive: [12] 94 % of control | [10] 94 % of control | [11] 94 % of control

COC(=O)C(C)CN1CCCCC1 (stereo not given)
inactive: dose: 50.0 mg/kg/injection, schedule: Q01DX009 (ip), vehicle: saline 101 % of control | dose: 100.0 mg/kg/injection, schedule: Q01DX009 (ip), vehicle: saline 97 % of control | dose: 100.0 mg/kg/injection, schedule: Q04DX003 (ip), vehicle: saline 102 % of control | dose: 200.0 mg/kg/injection, schedule: Q01DX009 (ip), vehicle: saline 101 % of control | dose: 200.0 mg/kg/injection, schedule: Q04DX003 (ip), vehicle: saline 105 % of control

— PubChem BioAssay AID248 (DTP/NCI, 2004)
